From ChEMBL document CHEMBL3046424, “Growth inhibitory effects on fall armyworm Spodoptera frugiperda of some limonoids isolated from Cedrela spp. (Meliaceae)” (2000)
Converted amounts (≈) assume the structure as drawn.

Legend:
Format in all cases: functional
[1] = test system: Spodoptera frugiperda; assay: Insecticidal activity against Spodoptera frugiperda (fall armyworm) assessed as mean weight gain at 10 ug/ml in artificial diet measured after 7 days (reference value: 469.5 +/- 6.59 mg)
[2] = test system: Spodoptera frugiperda; assay: Insecticidal activity against Spodoptera frugiperda (fall armyworm) assessed as mean length at 39 ug/ml in artificial diet measured after 7 days (reference value: 28 +/- 4.1 mg)
[3] = test system: Spodoptera frugiperda; assay: Insecticidal activity against Spodoptera frugiperda (fall armyworm) assessed as mean length at 5 ug/ml in artificial diet measured after 7 days (reference value: 28 +/- 4.1 mg)
[4] = test system: Spodoptera frugiperda; assay: Insecticidal activity against Spodoptera frugiperda (fall armyworm) assessed as mean emergence days at 25 ug/ml in artificial diet (reference value: 33 days)
[5] = test system: Spodoptera frugiperda; assay: Insecticidal activity against Spodoptera frugiperda (fall armyworm) assessed as mean weight gain at 52 ug/ml in artificial diet measured after 7 days (reference value: 75.5 +/- 8.24 mg)
[6] = test system: Spodoptera frugiperda; assay: Insecticidal activity against Spodoptera frugiperda (fall armyworm) assessed as mean emergence at 5 ug/ml in artificial diet (reference value: 83.3 %)
[7] = test system: Spodoptera frugiperda; assay: Insecticidal activity against Spodoptera frugiperda (fall armyworm) assessed as mean weight gain at 5 ug/ml in artificial diet measured after 7 days (reference value: 469.5 +/- 6.59 mg)
[8] = test system: Spodoptera frugiperda; assay: Insecticidal activity against Spodoptera frugiperda (fall armyworm) assessed as mean length at 39 ug/ml in artificial diet measured after 7 days (reference value: 0.95 +/- 0.2 cm)
[9] = test system: Spodoptera frugiperda; assay: Insecticidal activity against Spodoptera frugiperda (fall armyworm) assessed as mean weight gain at 52 ug/ml in artificial diet measured after 7 days (reference value: 469.5 +/- 6.59 mg)
[10] = test system: Spodoptera frugiperda; assay: Insecticidal activity against Spodoptera frugiperda (fall armyworm) assessed as mean length at 15 ug/ml in artificial diet measured after 7 days (reference value: 0.95 +/- 0.2 cm)
[11] = test system: Spodoptera frugiperda; assay: Insecticidal activity against Spodoptera frugiperda (fall armyworm) assessed as mean weight gain at 25 ug/ml in artificial diet measured after 7 days (reference value: 75.5 +/- 8.24 mg)
[12] = test system: Spodoptera frugiperda; assay: Insecticidal activity against Spodoptera frugiperda (fall armyworm) assessed as mortality at 39 ug/ml in artificial diet measured after 7 days (reference value: 8.33%); settings: 168 h
[13] = test system: Spodoptera frugiperda; assay: Insecticidal activity against Spodoptera frugiperda (fall armyworm) assessed as mean emergence days at 5 ug/ml in artificial diet (reference value: 33 days)
[14] = test system: Spodoptera frugiperda; assay: Insecticidal activity against Spodoptera frugiperda (fall armyworm) assessed as mean length at 5 ug/ml in artificial diet measured after 7 days (reference value: 0.95 +/- 0.2 cm)
[15] = test system: Spodoptera frugiperda; assay: Insecticidal activity against Spodoptera frugiperda (fall armyworm) assessed as mean emergence days at 52 ug/ml in artificial diet (reference value: 33 days)
[16] = test system: Spodoptera frugiperda; assay: Insecticidal activity against Spodoptera frugiperda (fall armyworm) assessed as mean length at 52 ug/ml in artificial diet measured after 7 days (reference value: 0.95 +/- 0.2 cm)
[17] = test system: Spodoptera frugiperda; assay: Insecticidal activity against Spodoptera frugiperda (fall armyworm) assessed as mean length at 25 ug/ml in artificial diet measured after 7 days (reference value: 0.95 +/- 0.2 cm)
[18] = test system: Spodoptera frugiperda; assay: Insecticidal activity against Spodoptera frugiperda (fall armyworm) assessed as mean weight of pupae at 25 ug/ml in artificial diet (reference value: 281.5 +/- 10.3 mg)
[19] = test system: Spodoptera frugiperda; assay: Insecticidal activity against Spodoptera frugiperda (fall armyworm) assessed as mean weight of pupae at 52 ug/ml in artificial diet (reference value: 281.5 +/- 10.3 mg)
[20] = test system: Spodoptera frugiperda; assay: Insecticidal activity against Spodoptera frugiperda (fall armyworm) assessed as mean pupation at 52 ug/ml in artificial diet (reference value: 87.5 %)
[21] = test system: Spodoptera frugiperda; assay: Insecticidal activity against Spodoptera frugiperda (fall armyworm) assessed as mean length at 10 ug/ml in artificial diet measured after 7 days (reference value: 28 +/- 4.1 mg)
[22] = test system: Spodoptera frugiperda; assay: Insecticidal activity against Spodoptera frugiperda (fall armyworm) assessed as mean pupation at 25 ug/ml in artificial diet (reference value: 87.5 %)
[23] = test system: Spodoptera frugiperda; assay: Insecticidal activity against Spodoptera frugiperda (fall armyworm) assessed as mortality at 25 ug/ml in artificial diet measured after 7 days (reference value: 8.33%); settings: 168 h
[24] = test system: Spodoptera frugiperda; assay: Insecticidal activity against Spodoptera frugiperda (fall armyworm) assessed as mean length at 52 ug/ml in artificial diet measured after 7 days (reference value: 28 +/- 4.1 mg)
[25] = test system: Spodoptera frugiperda; assay: Insecticidal activity against Spodoptera frugiperda (fall armyworm) assessed as mean weight gain at 39 ug/ml in artificial diet measured after 7 days (reference value: 469.5 +/- 6.59 mg)
[26] = test system: Spodoptera frugiperda; assay: Insecticidal activity against Spodoptera frugiperda (fall armyworm) assessed as mean weight gain at 39 ug/ml in artificial diet measured after 7 days (reference value: 75.5 +/- 8.24 mg)
[27] = test system: Spodoptera frugiperda; assay: Insecticidal activity against Spodoptera frugiperda (fall armyworm) assessed as mean length at 25 ug/ml in artificial diet measured after 7 days (reference value: 28 +/- 4.1 mg)
[28] = test system: Spodoptera frugiperda; assay: Insecticidal activity against Spodoptera frugiperda (fall armyworm) assessed as mean weight gain at 15 ug/ml in artificial diet measured after 7 days (reference value: 75.5 +/- 8.24 mg)
[29] = test system: Spodoptera frugiperda; assay: Insecticidal activity against Spodoptera frugiperda (fall armyworm) assessed as mean length at 10 ug/ml in artificial diet measured after 7 days (reference value: 0.95 +/- 0.2 cm)
[30] = test system: Spodoptera frugiperda; assay: Insecticidal activity against Spodoptera frugiperda (fall armyworm) assessed as mean time to pupation at 5 ug/ml in artificial diet (reference value: 22 days)
[31] = test system: Spodoptera frugiperda; assay: Insecticidal activity against Spodoptera frugiperda (fall armyworm) assessed as mortality at 52 ug/ml in artificial diet measured after 7 days (reference value: 8.33%); settings: 168 h
[32] = test system: Spodoptera frugiperda; assay: Insecticidal activity against Spodoptera frugiperda (fall armyworm) assessed as mortality measured after 7 days; settings: 168 h
[33] = test system: Spodoptera frugiperda; assay: Insecticidal activity against Spodoptera frugiperda (fall armyworm) assessed as mean emergence at 25 ug/ml in artificial diet (reference value: 83.3 %)
[34] = test system: Spodoptera frugiperda; assay: Insecticidal activity against Spodoptera frugiperda (fall armyworm) assessed as mean weight gain at 15 ug/ml in artificial diet measured after 7 days (reference value: 469.5 +/- 6.59 mg)
[35] = test system: Spodoptera frugiperda; assay: Insecticidal activity against Spodoptera frugiperda (fall armyworm) assessed as mortality at 5 ug/ml in artificial diet measured after 7 days (reference value: 8.33%); settings: 168 h
[36] = test system: Spodoptera frugiperda; assay: Insecticidal activity against Spodoptera frugiperda (fall armyworm) assessed as mean time to pupation at 25 ug/ml in artificial diet (reference value: 22 days)
[37] = test system: Spodoptera frugiperda; assay: Insecticidal activity against Spodoptera frugiperda (fall armyworm) assessed as mean pupation at 5 ug/ml in artificial diet (reference value: 87.5 %)
[38] = test system: Spodoptera frugiperda; assay: Insecticidal activity against Spodoptera frugiperda (fall armyworm) assessed as mean emergence at 52 ug/ml in artificial diet (reference value: 83.3 %)
[39] = test system: Spodoptera frugiperda; assay: Insecticidal activity against Spodoptera frugiperda (fall armyworm) assessed as mean time to pupation at 52 ug/ml in artificial diet (reference value: 22 days)
[40] = test system: Spodoptera frugiperda; assay: Insecticidal activity against Spodoptera frugiperda (fall armyworm) assessed as mean weight gain at 10 ug/ml in artificial diet measured after 7 days (reference value: 75.5 +/- 8.24 mg)
[41] = test system: Spodoptera frugiperda; assay: Insecticidal activity against Spodoptera frugiperda (fall armyworm) assessed as mean weight of pupae at 5 ug/ml in artificial diet (reference value: 281.5 +/- 10.3 mg)
[42] = test system: Spodoptera frugiperda; assay: Insecticidal activity against Spodoptera frugiperda (fall armyworm) assessed as mean weight gain at 25 ug/ml in artificial diet measured after 7 days (reference value: 469.5 +/- 6.59 mg)
[43] = test system: Spodoptera frugiperda; assay: Insecticidal activity against Spodoptera frugiperda (fall armyworm) assessed as mortality at 10 ug/ml in artificial diet measured after 7 days (reference value: 8.33%); settings: 168 h
[44] = test system: Spodoptera frugiperda; assay: Insecticidal activity against Spodoptera frugiperda (fall armyworm) assessed as mean length at 15 ug/ml in artificial diet measured after 7 days (reference value: […])
[45] = test system: Spodoptera frugiperda; assay: Insecticidal activity against Spodoptera frugiperda (fall armyworm) assessed as mortality at 15 ug/ml in artificial diet measured after 7 days (reference value: 8.33%); settings: 168 h
[46] = test system: Spodoptera frugiperda; assay: Insecticidal activity against Spodoptera frugiperda (fall armyworm) assessed as mean weight gain at 5 ug/ml in artificial diet measured after 7 days (reference value: 75.5 +/- 8.24 mg)

CC(=O)O[C@@H]1C[C@H]2C(C)(C)C(=O)C=C[C@]2(C)[C@H]2CC[C@@]3(C)[C@H](c4ccoc4)OC(=O)[C@H]4O[C@]43[C@@]21C [GEDUNIN]
Activity [1]: 4.95 mg | Activity [2]: 2 mm | Activity [3]: 2.6 mm | Time [4]: 35 days | Activity [5]: 1.9 mg | Activity [6]: 17.9% | Activity [7]: 16.12 mg | Activity [8]: 0.25 cm | Activity [9]: 2.2 mg | Activity [10]: 0.35 cm | Activity [11]: 3.4 mg | mortality at 39 µg/mL [12]: 48.3% | Time [13]: 33 days | Activity [14]: 0.5 cm | Time [15]: 36 days | Activity [16]: 0.2 cm | Activity [17]: 0.3 cm | Activity [18]: 122.4 mg | Activity [19]: 52 mg | Activity [20]: 4.17% | Activity [21]: 2.9 mm | Activity [22]: 16.7% | mortality at 25 µg/mL [23]: 38.3% | Activity [24]: 2.1 mm | Activity [25]: 2.8 mg | Activity [26]: 2.3 mg | Activity [27]: 2.1 mm | Activity [28]: 3.6 mg | Activity [29]: 0.4 cm | Time [30]: 22 days | mortality at 52 µg/mL [31]: 70.8% | LC50 [32]: 39 µg/mL (≈ 80.8 µM) | Activity [33]: 16.7% | Activity [34]: 3.61 mg | mortality at 5 µg/mL [35]: 25% | Time [36]: 23 days | Activity [37]: 20.8% | Activity [38]: 4.17% | Time [39]: 24 days | Activity [40]: 4.9 mg | Activity [41]: 147.9 mg | Activity [42]: 3.45 mg | mortality at 10 µg/mL [43]: 33.3% | Activity [44]: 2.6 mm | mortality at 15 µg/mL [45]: 33.3% | Activity [46]: 6.12 mg
